The supplement of paper PMC10307832

Assays:
Experiment in all cases: relative viability (nuclei count vs DMSO), 5 days (fraction); higher = more cells survive
ALW-II-49-7 + Tozasertib = compound: Cc1ccc(C(=O)Nc2cccc(C(F)(F)F)c2)cc1Nc1cncc(C(N)=O)c1 [ALW-II-49-7] + Cc1cc(Nc2cc(N3CCN(C)CC3)nc(Sc3ccc(NC(=O)C4CC4)cc3)n2)n[nH]1 [Tozasertib] (partner 0.1 µM)
Procedure, shortened: (§1)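 Relative viability was taken as the ratio of nuclei in treated wells to nuclei in vehicle wells. Lung cancer cell lines in 1536-well plates received compounds by pin tool one day after seeding, either one drug alone or a fixed anchor-drug dose plus five library-drug doses (not always all listed) in √10 steps. Nuclei were counted on 4× images after 5 days of treatment, and values are medians of duplicate plates.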

Dasatinib + Foretinib = compound: Cc1nc(Nc2ncc(C(=O)Nc3c(C)cccc3Cl)s2)cc(N2CCN(CCO)CC2)n1 [Dasatinib] + COc1cc2c(Oc3ccc(NC(=O)C4(C(=O)Nc5ccc(F)cc5)CC4)cc3F)ccnc2cc1OCCCN1CCOCC1 [Foretinib] (partner 0.25 µM)
Procedure, shortened: as §1

Dasatinib + Lapatinib = compound: Cc1nc(Nc2ncc(C(=O)Nc3c(C)cccc3Cl)s2)cc(N2CCN(CCO)CC2)n1 [Dasatinib] + CS(=O)(=O)CCNCc1ccc(-c2ccc3ncnc(Nc4ccc(OCc5cccc(F)c5)c(Cl)c4)c3c2)o1 [Lapatinib] (partner 2 µM)
Procedure, shortened: as §1

Dasatinib + Vorinostat = compound: Cc1nc(Nc2ncc(C(=O)Nc3c(C)cccc3Cl)s2)cc(N2CCN(CCO)CC2)n1 [Dasatinib] + O=C(CCCCCCC(=O)Nc1ccccc1)NO [Vorinostat] (partner 1 µM)
Procedure, shortened: as §1

Cell Line	relative viability (ALW-II-49-7 + Tozasertib; first compound 0.08 µM)	relative viability (ALW-II-49-7 + Tozasertib; first compound 0.253 µM)	relative viability (ALW-II-49-7 + Tozasertib; first compound 0.8 µM)	relative viability (ALW-II-49-7 + Tozasertib; first compound 2.53 µM)	relative viability (ALW-II-49-7 + Tozasertib; first compound 8 µM)	relative viability (Dasatinib + Foretinib; first compound 0.005 µM)	relative viability (Dasatinib + Foretinib; first compound 0.01581 µM)	relative viability (Dasatinib + Foretinib; first compound 0.05 µM)	relative viability (Dasatinib + Foretinib; first compound 0.1581 µM)	relative viability (Dasatinib + Foretinib; first compound 0.5 µM)	relative viability (Dasatinib + Lapatinib; first compound 0.005 µM)	relative viability (Dasatinib + Lapatinib; first compound 0.01581 µM)	relative viability (Dasatinib + Lapatinib; first compound 0.05 µM)	relative viability (Dasatinib + Lapatinib; first compound 0.1581 µM)	relative viability (Dasatinib + Lapatinib; first compound 0.5 µM)	relative viability (Dasatinib + Vorinostat; first compound 0.005 µM)	relative viability (Dasatinib + Vorinostat; first compound 0.01581 µM)	relative viability (Dasatinib + Vorinostat; first compound 0.05 µM)	relative viability (Dasatinib + Vorinostat; first compound 0.1581 µM)	relative viability (Dasatinib + Vorinostat; first compound 0.5 µM)
NCI-H1395	0.746	0.825	0.736	0.779	0.631	1	1.08	1.04	0.585	0.331	0.926	0.954	0.678	0.479	0.466	0.722	0.762	0.515	0.291	0.387
NCI-H1437	0.35	0.387	0.383	0.41	0.391	1.25	1.23	1.32	1.07	0.848	0.785	0.784	0.809	0.752	0.218	0.972	1.04	1.03	0.914	0.59
NCI-H1650	0.364	0.437	0.374	0.313	0.293	0.877	0.64	0.635	0.247	0.262	0.552	0.5	0.441	0.381	0.325	0.591	0.61	0.568	0.406	0.278
NCI-H1651	0.608	0.852	0.543	0.566	0.377	0.81	0.666	0.673	0.646	0.445	0.864	0.573	0.648	0.625	0.489	0.546	0.433	0.481	0.465	0.359
NCI-H1666	0.609	0.603	0.569	0.612	0.498	1.12	0.989	1.07	0.862	0.425	0.582	0.482	0.522	0.447	0.224	1.2	1.06	1.23	1.07	0.761
NCI-H1734	0.263	0.278	0.255	0.24	0.232	0.743	0.613	0.586	0.427	0.367	1.02	0.755	0.894	0.508	0.531	0.721	0.71	0.703	0.529	0.496
NCI-H1755	0.654	0.558	0.463	0.483	0.466	0.778	0.706	0.617	0.463	0.185	0.957	0.714	0.749	0.622	0.246	0.655	0.718	0.568	0.421	0.374
NCI-H1793	0.366	0.301	0.338	0.296	0.321	0.553	0.528	0.374	0.337	0.359	0.587	0.46	0.349	0.622	0.58	0.56	0.571	0.46	0.357	0.344
NCI-H1915	0.398	0.457	0.42	0.341	0.277	1.05	0.804	0.957	0.431	0.298	0.939	0.892	0.87	0.382	0.242	0.539	0.483	0.446	0.374	0.119
NCI-H1944	0.234	0.249	0.251	0.246	0.254	0.849	0.684	0.701	0.291	0.21	0.598	0.736	0.577	0.334	0.268	0.573	0.527	0.452	0.196	0.169
NCI-H1975	0.743	1.05	0.667	0.508	0.243	0.918	0.817	0.722	0.439	0.225	0.779	0.701	0.595	0.419	0.23	0.668	0.613	0.654	0.356	0.299
NCI-H1993	0.524	0.605	0.567	0.629	0.632	0.641	0.59	0.561	0.472	0.496	0.761	0.771	0.776	0.731	0.737	0.722	0.73	0.692	0.394	0.435
NCI-H2009	0.771	0.804	0.707	0.653	0.562	1.15	0.984	0.925	0.882	0.216	1.13	1	0.96	0.305	0.151	0.75	0.681	0.762	0.426	0.133
